{"source": "patent US20070043024A1", "about": "“Azacyclic compounds as inhibitors of sensory neurone specific channels” (priority 2003, published 2007)"}
{"target": "T1, human Nav1.8 (hNav1.8) ion channel (Homo sapiens, UniProt Q9Y5Y9)", "T1 construct": "expressed in transfected cells", "T1 sequence (Q9Y5Y9 whole entry)": "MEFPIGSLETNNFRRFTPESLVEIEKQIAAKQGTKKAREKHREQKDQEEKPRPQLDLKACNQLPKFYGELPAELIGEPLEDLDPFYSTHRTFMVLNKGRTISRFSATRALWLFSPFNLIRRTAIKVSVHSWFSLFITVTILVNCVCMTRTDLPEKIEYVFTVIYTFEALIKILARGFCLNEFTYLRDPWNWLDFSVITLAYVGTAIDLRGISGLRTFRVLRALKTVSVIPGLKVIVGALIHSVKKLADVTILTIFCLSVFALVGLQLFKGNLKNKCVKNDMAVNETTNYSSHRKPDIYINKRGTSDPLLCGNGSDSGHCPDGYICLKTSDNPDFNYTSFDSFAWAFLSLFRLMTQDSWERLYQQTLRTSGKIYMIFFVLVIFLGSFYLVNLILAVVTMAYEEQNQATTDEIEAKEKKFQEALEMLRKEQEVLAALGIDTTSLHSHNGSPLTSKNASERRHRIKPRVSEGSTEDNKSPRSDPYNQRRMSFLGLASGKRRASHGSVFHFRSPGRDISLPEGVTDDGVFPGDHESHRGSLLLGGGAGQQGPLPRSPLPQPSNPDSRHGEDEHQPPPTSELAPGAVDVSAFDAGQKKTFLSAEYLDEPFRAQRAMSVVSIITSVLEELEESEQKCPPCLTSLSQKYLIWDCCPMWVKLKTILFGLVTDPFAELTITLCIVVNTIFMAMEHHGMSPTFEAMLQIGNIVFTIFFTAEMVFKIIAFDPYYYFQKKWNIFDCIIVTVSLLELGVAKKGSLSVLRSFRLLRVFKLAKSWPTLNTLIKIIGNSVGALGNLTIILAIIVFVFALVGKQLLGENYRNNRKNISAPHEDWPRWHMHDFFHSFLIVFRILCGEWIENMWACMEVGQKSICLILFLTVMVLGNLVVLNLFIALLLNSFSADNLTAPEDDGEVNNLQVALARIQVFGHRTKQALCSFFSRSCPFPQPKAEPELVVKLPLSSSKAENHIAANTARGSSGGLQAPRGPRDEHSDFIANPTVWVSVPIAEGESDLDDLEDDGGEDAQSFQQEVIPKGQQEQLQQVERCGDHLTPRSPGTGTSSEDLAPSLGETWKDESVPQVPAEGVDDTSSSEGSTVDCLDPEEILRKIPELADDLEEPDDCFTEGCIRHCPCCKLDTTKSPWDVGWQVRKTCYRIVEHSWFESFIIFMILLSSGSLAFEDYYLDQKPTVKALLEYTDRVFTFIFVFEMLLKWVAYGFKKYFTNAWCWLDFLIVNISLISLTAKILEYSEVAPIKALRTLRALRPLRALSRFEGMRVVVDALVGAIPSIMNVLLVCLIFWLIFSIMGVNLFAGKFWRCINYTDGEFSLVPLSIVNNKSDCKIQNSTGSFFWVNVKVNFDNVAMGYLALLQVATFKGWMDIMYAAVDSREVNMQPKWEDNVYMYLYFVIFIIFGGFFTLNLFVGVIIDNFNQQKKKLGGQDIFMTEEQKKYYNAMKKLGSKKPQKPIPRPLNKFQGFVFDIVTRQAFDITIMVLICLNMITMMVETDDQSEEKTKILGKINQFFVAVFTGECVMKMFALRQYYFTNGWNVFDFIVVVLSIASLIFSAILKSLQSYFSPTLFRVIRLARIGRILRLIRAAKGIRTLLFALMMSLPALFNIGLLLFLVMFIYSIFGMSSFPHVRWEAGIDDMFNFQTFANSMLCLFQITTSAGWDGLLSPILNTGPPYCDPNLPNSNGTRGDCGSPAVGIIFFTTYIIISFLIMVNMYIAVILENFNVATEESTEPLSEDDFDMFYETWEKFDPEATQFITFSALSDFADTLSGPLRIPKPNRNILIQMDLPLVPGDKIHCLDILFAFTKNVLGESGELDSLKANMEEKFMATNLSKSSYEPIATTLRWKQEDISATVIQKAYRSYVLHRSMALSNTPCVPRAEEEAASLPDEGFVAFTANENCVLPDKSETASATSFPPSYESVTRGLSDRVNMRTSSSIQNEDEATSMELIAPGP", "test": "Inhibition of human Nav1.8 stably expressed in SH-SY-5Y cells (membrane potential dye fluorescence assay)", "type": "cell-based", "details": "Table 2 (compound numbers of the list in the description); SH-SY-5Y hNav1.8 cells, inhibition of membrane depolarisation, FLIPR membrane potential dye, 250 nM TTX, test concentration range 100 μM-0.05 μM; read-out: IC50", "experimental": "Inhibition of Human Nav1.8 Stably Expressed in SH-SY-5Y Cells\nA SH-SY-5Y neuroblastoma cell line stably expressing the human […] (hNav1.8) ion channel was constructed. This cell line has been used to develop a medium to high throughput assay for determining the ability of test compounds to inhibit membrane depolarisation mediated via the hNav1.8 channel.\nSH-SY-5Y hNav1.8 are grown in adherent monolayer culture using 50:50 Ham's F-12/EMEM tissue culture medium supplemented with 15% (v/v) foetal bovine serum; 2 mM L-glutamine, 1% NEAA and 600 μg·ml^−1 Geneticin sulphate. Cells are removed from the tissue culture flask using trypsin/EDTA and re-plated into black walled, clear bottom 96-well assay plates at 50,000 cells·well^−1 24 hours prior to assay.\nOn the day of assay the cell assay plates are washed to remove cell culture medium using a sodium free assay buffer (145 mM tetramethyl ammonium chloride; 2 mM calcium chloride; 0.8 mM magnesium chloride hexahydrate; 10 mM HEPES; 10 mM glucose; 5 mM potassium chloride, pH 7.4). Fluorescent membrane potential dye solution (FLIPR™ membrane potential dye, Molecular Devices Corporation), containing 10 μM of a pyrethroid to prevent channel inactivation and 250 nM tetrodotoxin (TTX) to reduce interference from TTX-sensitive sodium channels present in the cell line. Test compound, initially dissolved in dimethyl sulfoxide but further diluted in sodium free buffer, is added to achieve the final test concentration range of 100 μM-0.05 μM.\nCell plates are incubated for 30 minutes at room temperature to allow equilibration of dye and test compound. Plates are then transferred to a fluorescence plate reader for fluorescence measurement using an excitation wavelength of 530 nm whilst measuring fluorescence emission at 565 nm. Baseline fluorescence levels are first determined before the addition of a sodium containing buffer (220 mM sodium chloride; 2 mM calcium chloride; 0.8 mM magnesium chloride hexahydrate; […]; 10 mM glucose; 5 mM potassium chloride. pH 7.4) to cause membrane depolarisation in those cells where channel block has not been effected (final sodium concentration=72.5 mM). Membrane depolarisation is registered by an increase in fluorescence emission at 565 nm.\nThe change in fluorescence seen in each test well upon the addition of sodium containing buffer is calculated relative to the baseline fluorescence for that well. This figure is then used for calculating the IC50 for each test compound.", "units": {"IC50": "µM"}}
{"smiles": "COc1cc2c(cc1OC)CN(CC(=O)N1c3ccccc3Sc3ccc(Cl)cc31)CC2", "note": "[Compound 153, 1-(2-Chloro-phenothiazin-10-yl)-2-(6,7-dimethoxy-3,4-dihydro-1H-isoquinolin-2-yl)-ethanone]", "IC50": 5.31}
{"smiles": "COc1cc2c(cc1OC)CN(CC(=O)N1c3ccccc3Sc3ccc(C(F)(F)F)cc31)CC2", "note": "[Compound 154, 2-(6,7-Dimethoxy-3,4-dihydro-1H-isoquinolin-2-yl)-1-(2-trifluoromethyl-phenothiazin-10-yl)-ethanone]", "IC50": 12.4}
{"smiles": "COc1cc2c(cc1OC)CN(CC(=O)N1c3ccccc3Sc3ccc(C(C)=O)cc31)CC2", "note": "[Compound 155, 1-(2-Acetyl-phenothiazin-10-yl)-2-(6,7-dimethoxy-3,4-dihydro-1H-isoquinolin-2-yl)-ethanone]", "IC50": 6.26}
{"smiles": "COc1cc2c(cc1OC)CN(CC(=O)N1c3ccccc3Sc3ccc(SC)cc31)CC2", "note": "[Compound 156, 2-(6,7-Dimethoxy-3,4-dihydro-1H-isoquinolin-2-yl)-1-(2-methylsulfanyl-phenothiazin-10-yl)-ethanone]", "IC50": 2.37}
{"smiles": "COc1cc2c(cc1OC)CN(CC(=O)N1c3ccccc3[S+]([O-])c3ccccc31)CC2", "note": "[Compound 157, 2-(6,7-Dimethoxy-3,4-dihydro-1H-isoquinolin-2-yl)-1-(5-oxo-5H-5lambda*4*-phenothiazin-10-yl)-ethanone]", "IC50": 30}
{"smiles": "CSc1ccc2c(c1)N(C(=O)CN1CCc3cccc(O)c3C1)c1ccccc1S2", "note": "[Compound 158, 2-(8-Hydroxy-3,4-dihydro-1H-isoquinolin-2-yl)-1-(2-methylsulfanyl-phenothiazin-10-yl)-ethanone]", "IC50": 4.59}
{"smiles": "COc1cccc2c1CN(CC(=O)N1c3ccccc3Sc3ccc(SC)cc31)CC2", "note": "[Compound 159, 2-(8-Methoxy-3,4-dihydro-1H-isoquinolin-2-yl)-1-(2-methylsulfanyl-phenothiazin-10-yl)-ethanone]", "IC50": 20.8}
{"smiles": "O=C(NCCN1CCc2cccc(O)c2C1)N1c2ccccc2Sc2ccccc21", "note": "[Compound 160, Phenothiazine-10-carboxylic acid [2-(8-hydroxy-3,4-dihydro-1H-isoquinolin-2-yl)-ethyl]-amide]", "IC50": 0.95}
{"smiles": "COc1cc2c(cc1OC)CN(CCNC(=O)N1c3ccccc3Sc3ccccc31)CC2", "note": "[Compound 161, Phenothiazine-10-carboxylic acid [2-(6,7-dimethoxy-3,4-dihydro-1H-isoquinolin-2-yl)-ethyl]-amide]", "IC50": 1.11}
{"smiles": "COc1cccc2c1CN(CCNC(=O)N1c3ccccc3Sc3ccccc31)CC2", "note": "[Compound 162, Phenothiazine-10-carboxylic acid [2-(8-methoxy-3,4-dihydro-1H-isoquinolin-2-yl)-ethyl]-amide]", "IC50": 0.97}
{"smiles": "O=C(NCCN1CCc2cccc(O)c2C1)N1c2ccccc2Oc2ccccc21", "note": "[Compound 163, Phenoxazine-10-carboxylic acid [2-(8-hydroxy-3,4-dihydro-1H-isoquinolin-2-yl)-ethyl]-amide]", "IC50": 0.77}
{"smiles": "COc1cccc2c1CN(CCNC(=O)N1c3ccccc3Oc3ccccc31)CC2", "note": "[Compound 164, Phenoxazine-10-carboxylic acid [2-(8-methoxy-3,4-dihydro-1H-isoquinolin-2-yl)-ethyl]-amide]", "IC50": 0.71}
{"smiles": "COc1cc2c(cc1OC)CN(CCNC(=O)N1c3ccccc3Oc3ccccc31)CC2", "note": "[Compound 165, Phenoxazine-10-carboxylic acid [2-(6,7-dimethoxy-3,4-dihydro-1H-isoquinolin-2-yl)-ethyl]-amide]", "IC50": 1.02}
{"smiles": "COc1cccc2c1CN(CCC(=O)NCCC(c1ccc(F)cc1)c1ccc(F)cc1)CC2", "note": "[Compound 166, N-[3,3-Bis-(4-fluoro-phenyl)-propyl]-3-(8-methoxy-3,4-dihydro-1H-isoquinolin-2-yl)-propionamide]", "IC50": 0.35}
{"smiles": "O=C(CN1CCc2cccc(O)c2C1)NN(c1ccccc1)c1ccccc1", "note": "[Compound 167, (8-Hydroxy-3,4-dihydro-1H-isoquinolin-2-yl)-acetic acid N′,N′-diphenyl-hydrazide]", "IC50": 4.51}
